# Experimental data as given in patent publication US20070009531A1 (priority 2005, published 2007).
# Entries after “also recorded” stand apart in the source; their conditions may differ.
# Columns and labels:
# [1] = combination of verapamil and VAD (vincristine, doxorubicin, dexamethasone); cited from earlier work
# [2] = pharmacokinetic interaction with co-administered oncolytics in preclinical models; assay type: in vivo; settings: several oncolytics
# [3] = system: P-gp-associated resistance; experiment: in vivo activity in preclinical animal studies
# [4] = system: AML; settings: older patients, Mylotarg alone, registration trials; cited from earlier work
molecule,measurement,setting,value
COc1ccc(CCN(C)CCCC(C#N)(c2ccc(OC)c(OC)c2)C(C)C)cc1OC (stereo not shown) [verapamil],patients responded,[1],5 of 22
O[C@@H](COc1cccc2ncccc12)CN1CCN([C@@H]2c3ccccc3[C@@H]3[C@H](c4ccccc42)C3(F)F)CC1 [zosuquidar],pharmacokinetic interaction with co-administered chemotherapy,[2],no pharmacokinetic interaction; also recorded: minimal pharmacokinetic (PK) interactions
same,in vivo activity,[3],good in vivo activity
gemtuzumab ozogamicin [Mylotarg],rate of complete remission (CR+CRp),[4],26%
